Reference: patent US7687546B2, “Quaternary ammonium compound, process for producing the same, therapeutic agent for cerebrovascular disorder, and therapeutic agent for heart disease” (Activus Pharma Co., Ltd., priority 2004, dated 2010)
Where two headings read alike, the source gives them in different places.

What was measured:
[1] = tested on: ouabain-induced arrhythmia model; assay: Ouabain-induced arrhythmia model in guinea pigs; format: in vivo, guinea pigs (Hartley strain); conditions: dose 3 mg/kg i.v. immediately before ouabain infusion 3 μg/0.1 ml/min
Text: After guinea pigs (Hartley strain, age 6 weeks) were anesthetized with urethane, induction electrodes were attached to the hind limbs and fore limbs, and standard 2-lead electrocardiograms were monitored with an animal electrocardiogram analysis system (ECG-01, Japan Energy). After confirming that the waveforms of the electrocardiogram and heart rate were within the normal range, an incision was made in the epidermis of the neck followed by inserting a breathing tube into the trachea and cannulating a polyethylene tube into the left external jugular vein and left common carotid artery.
Immediately after administering a compound of the present invention dissolved in a physiological saline solution into the right external jugular vein, ouabain was continuously infused at 3 μg/0.1 ml/min through the cannulated polyethylene tube into the left external jugular vein using a syringe pump (Atom Syringe Pump 1235 (trade name), Atom Medical Corporation).
In addition, the polyethylene tube cannulated in the left common carotid artery was connected to a pressure transducer (P23XL, Gould Electronics), and fed to a pressure processor signal conditioner (TA-11, Gould Electronics) to record blood pressure and heart rate on a thermal plate recorder.
The results were assessed by comparing the dose (μg/kg) of ouabain administered until the appearance of arrhythmia and occurrence of cardiac arrest (arrhythmia is not induced even if a large dose of ouabain is administered if antiarrhythmic effects are high). Furthermore, a solvent dose group (administered only physiological saline in an amount equal to that of the test drug groups), and a positive control group administered a typical antiarrhythmic disopyramide phosphate (physiological saline solution), were also provided.

[2] = tested on: model of myocardial ischemia-reperfusion injury; assay: Model of myocardial ischemia-reperfusion injury in rats; format: in vivo; conditions: 3 mg/kg i.v. 5 minutes before 5 minutes coronary ligation, 8 rats per group; for Incidence of Ventricular Fibrillation (%) / Incidence of Ventricular Tachycardia (%): monitored 5 minutes after reperfusion; for Mortality Rate (%): then reperfusion
[3] = tested on: middle cerebral artery occlusion and reperfusion model; assay: Cerebral infarction model: middle cerebral artery occlusion and reperfusion (infarct area, neurological symptoms, motor function); format: in vivo, rats (Crj: Wistar strain); design: Improvement of neurological symptoms* (total score): scale not given here; conditions: rats, average of 10 animals; for Improvement of neurological symptoms* (total score) / Improvement of motor function (time stayed on rotor rod: seconds): single i.v. dose 3 mg/kg; for Improvement of neurological symptoms* (total score): 24 hours after occlusion, total score per Table 4, smaller = greater effect; for Improvement of motor function (time stayed on rotor rod: seconds): rotor rod 14 rotations per minute, maximum 1 minute; for Cerebral infarction reduction rate (%): single intravenous dose 3 mg/kg immediately before reperfusion, vs physiological saline group, bigger = greater effect
Protocol: In this example, a cerebral infarction model was prepared using rats in which reperfusion injury was induced by ischemia and then reperfusion of the middle cerebral artery using the obturator method. The efficacy of compounds of the present invention following single-dose intravenous administration at dose of 3 mg/kg was evaluated in terms of infarct area, neurological symptoms and motor function.
In addition, Edaravone (trade name, Mitsubishi Pharma Corporation) was used as a reference compound. The compounds of the present invention were stored in a refrigerator under protection from light, while Edaravone (trade name) was stored at room temperature under protection from light.
Compounds of present invention: 2 mL of physiological saline was added directly to tube containing 3 mg aliquots of a compound of the present invention to dissolve and prepare solutions having a concentration of 3 mg/2 mL. These samples were prepared at the time of use.
Edaravone: Since Edaravone is an injectable solution having a concentration of 30 mg/20 mL, the required amounts were divided up and used.
Rats: Crj: Wistar strain, males, age 7 weeks (Charles River Laboratories Japan, Inc.)
The test compounds were administered in a single dose into the tail vein using a 1 mL syringe and 27 G injection needle immediately before the reperfusion.
The rats were anesthetized by intraperitoneal administration of sodium pentobarbital at dose of 40 mg/kg (Nembutal (trade name), Dainippon Pharmaceutical Co., Ltd.), and a middle cerebral artery occlusion and reperfusion model was prepared in accordance with the method of Koizumi et al. (Non-Patent Document 2). Namely, the animals were warmed to 37° C. and held in the dorsal position while breathing spontaneously. A midline cervical incision was made, and then the right external carotid artery and right internal carotid artery were separated without damaging the vagus nerve. The right common carotid artery and right external carotid artery were ligated, and a suture was attached to the origin of the internal carotid artery in preparation for ligation and maintenance of occlusion following insertion of an obturator into the internal carotid artery. Moreover, a small incision was made in the right common carotid artery, an obturator provided with an approximately 17 mm silicon-coated suture was inserted into the internal carotid artery, and the internal carotid artery was ligated. Two hours after ligation, the obturator was removed under unanesthesia to reperfuse. Furthermore, flexion of the contralateral forelimb was confirmed 30 minutes after occlusion of the middle cerebral artery.
The following neurological symptoms were evaluated 24 hours after occlusion of the middle cerebral artery according to the evaluation method of Petullo et al. (Non-Patent Document 3). Neurological symptoms consisted of flexion of the forelimbs, torso twisting, resistance when pushing on the back of the right or left shoulder (Lateral push), circling, return of the hindlimb to the floor when lifted from the floor (Hindlimb placement), behavior when the head is faced downward on an angle (Inverted angle board) and a locomotor activity test.
Flexion of the forelimbs: flexion of the forelimbs was observed when the animals were lifted up by the tail.
Torso twisting: Torso twisting was observed when the animals were lifted up by the tail.
Lateral push: Resistance was observed when pushing on the back of the right or left shoulder.
Hindlimb placement: The animals were observed as to whether or not the hindlimb immediately returns to the floor after being lifted from the floor when placed on a horizontal floor.
locomotor activity: locomotor activity was observed when the animals were placed in a polycarbonate cage.
The aforementioned tests were scored based on the criteria described in the following documents, followed by calculation of total scores (see Table 4 “Neurological Symptom Evaluation Criteria and Scores”). […]

guinea pigs = conditions: guinea pig, in vivo
[4] = tested on: model of myocardial ischemia reperfusion injury; assay: Model of myocardial ischemia-reperfusion injury in dogs; format: in vivo; conditions: 3 mg/kg into the femoral vein 10 minutes before 20 minutes coronary occlusion, then reperfusion
Protocol: In order to confirm the efficacy of compounds of the present invention on myocardial infarction and arrhythmia caused by myocardial infarction, a pharmacological study was conducted using a model of myocardial ischemia reperfusion injury in dogs for the compounds used in Example 1.
Dogs having body weights of approximately 10 kg were anesthetized with pentobarbital (trade name) (30 mg/ml/kg) followed by shaving the surgical site after starting artificial respiration. The femoral vein and femoral artery were separated followed by cannulation. The femoral vein was used as the administration route for the test substances, while the femoral artery was used to measure blood pressure.
Next, after opening the left chest, making an incision in the pericardium and exposing the left ventricle, the left coronary artery was separated. A silk suture was passed through the coronary artery to occlude, followed by the attachment of an electromagnetic flow meter probe for measuring blood flow.
In addition, a pair of ultrasound crystal probes was fixed in position to measure changes in ventricular wall length as a indicator of myocardial contractile force, and indwelling needle was installed for measuring left intraventricular pressure. Compounds of the present invention were administered into the femoral vein at 3 mg/kg (15% physiological saline solution) followed 10 minutes later by occluding the coronary artery for 20 minutes, and subsequently reperfusing the coronary artery. Myocardial contraction following ischemia-reperfusion was compared for each group based on a value of 100 for myocardial contraction prior to ischemic reperfusion. In addition, comparisons were also made with a solvent control group administered only physiological saline.

Row | Compound | Ouabain (μg/kg) administered until Cardiac arrest [1] [µg/kg] | Ouabain (μg/kg) administered until appearance of Arrhythmia [1] [µg/kg] | Incidence of Ventricular Fibrillation (%) [2] [%] | Incidence of Ventricular Tachycardia (%) [2] [%] | Mortality Rate (%) [2] [%] | Improvement of neurological symptoms* (total score) [3] | Improvement of motor function (time stayed on rotor rod: seconds) [3] [s] | Cerebral infarction reduction rate (%) [3] [%] | Occurrence of Arrhythmia (guinea pigs; 3 mg/kg) | Occurrence of cardiac arrest (guinea pigs; 3 mg/kg) | Occurrence of Arrhythmia (guinea pigs; 10 mg/kg) | Occurrence of cardiac arrest (guinea pigs; 10 mg/kg) | Myocardial Contraction (%) (Based on a value of 100% for prior to ischemia-reperfusion) [4]
1 | C[N+](C)(C)CCOc1ccc(C(=O)[O-])c(O)c1O [Compound 32] | 243 | 176 | 12.5 | 50.0 | 12.5 | 5.65 | 53.5 | 55.4 | No | No | No | No | 79
2 | C[N+](C)(C)CCOc1ccc(O)c(C(=O)[O-])c1 [Compound 9] | 245 | 170 | 25.0 | 75.0 | 12.5 | 5.95 | 51.6 | 51.5 | No | No | No | No | 78
3 | C[N+](C)(C)CCCOc1cc(S(=O)(=O)[O-])ccc1O [Compound 77] | 227 | 167 | 12.5 | 75.0 | 12.5 | 6.40 | 49.3 | 47.3 | No | No | No | No | 75
4 | CCN(CC)CC(=O)Nc1c(C)cccc1C [Lidocaine, lidocaine, reference compound] | – | – | 12.5 | 62.5 | 12.5 | – | – | – | – | – | – | – | –
5 | C[N+](C)(C)CCOc1ccc(O)c(S(=O)(=O)[O-])c1 [Compound 66] | 237 | 168 | 12.5 | 62.5 | 12.5 | 6.35 | 49.6 | 47.9 | No | No | No | No | 80
6 | COc1ccc(C(=O)[O-])cc1OCC[N+](C)(C)C [Compound 39] | 229 | 165 | 12.5 | 62.5 | 12.5 | 6.80 | 42.4 | 37.8 | No | No | No | No | 74
7 | C[N+](C)(C)CCOc1cc(C(=O)[O-])c(O)cc1O [Compound 30] | 247 | 173 | 12.5 | 62.5 | 12.5 | 6.50 | 51.4 | 42.9 | No | No | No | No | 77
8 | C[N+](C)(C)CCOc1cc(C(=O)[O-])cc(O)c1O [Compound 31] | 259 | 179 | 0 | 37.5 | 0 | 5.25 | 60.0 | 65.3 | No | No | No | No | 89
9 | CC1=NN(c2ccccc2)C(=O)C1 [Edaravone, reference compound] | – | – | – | – | – | 6.10 | 42.6 | 37.3 | – | – | – | – | –
